Assay results taken from US20240307351A1, “AGENT FOR ANTI-AGING OR FOR CELLULAR REJUVENATION” (TOHOKU UNIVERSITY, priority 2022, published 2024).

Legend:
SIRTI protein = assay: Amount of SIRT1 protein in RH30 cells by Western blotting; type: cell-based, human; conditions: 30 μM, 24 hours, compared with Control group (DMSO)
Description: RH30 cells (human rhabdomyosarcoma cell line; gli gene expression+, N-myc gene expression+) at 1×10^6 cell/dish were seeded and cultured in a dish containing 10 mL of a culture solution (low-glucose-containing DMEM medium (glucose concentration of 1.0 g/dL) to which 10 wt. % of FBS was added). One day later, Compound #5 was added to have a concentration of 30 μM, and the mixture was cultured for 24 hours ([Compound #5 addition group]). Compound #9, Compound #13, Compound #21, Compound #30, or Compound #35 as the present compound was added in place of Compound #5, and the mixture was cultured in the same manner, respectively, as [Compound #9 addition group], [Compound #13 addition group], [Compound #21 addition group], [Compound #30 addition group], and […].
On the other hand, as a control, DMSO (dimethyl sulfoxide) was added to have a concentration of 0.2 wt. %, and the mixture was cultured for 24 hours ([Control group]).
After completion of culture, the cells were recovered, disrupted by a typical method, and the amount of each of the proteins (SIRTI proteins, etc.) in the cells was detected by Western blotting. Further, the results of quantification of each band in the detection results of the Western blotting in FIG. 6 through normalization with the band of β-actin as a loading control are shown in FIG. 7.

[1] = tested on: C57BL6 mice (12 weeks old); assay: Treadmill running test of young mice; type: in vivo, mouse; conditions: oral, 2 months; for decrease in the running time on a treadmill: young C57BL6 mice (12 weeks old); for time to exhaustion: young C57BL6 mice, compared to Vehicle group
Description: (§1) Water-suspended Compound #5 was orally administered to C57BL6 mice (12 weeks old) at a dose of 50 mg/kg/day per kg of mouse weight for 2 months ([MA5 high dose addition group], n=5).
Water-suspended Compound #5 was orally administered to C57BL6 mice (12 weeks old) at a dose of 10 mg/kg/day per kg of mouse weight for 2 months ([MA5 low dose addition group], n=5).
In addition, water was orally administered to C57BL6 mice (12 weeks old) for 2 months ([Vehicle group], n=5).

[2] = tested on: liver cells of young mice; assay: RNA-Seq and ChIP-Atlas analysis of liver cells of young mice; type: in vivo, mouse; conditions: oral, 50 mg/kg/day, 2 months, Table 3
Description: Water-suspended Compound #5 was orally administered to C57BL6 mice (12 weeks old) at a dose of 50 mg/kg/day per kg of mouse weight for 2 months ([MA5 addition group], n=5). After 2 months of oral administration, the mice were 20 weeks old.
In addition, water was orally administered to C57BL6 mice (12 weeks old) for 2 months ([Vehicle group], n=5). After 2 months of oral administration, the mice were 20 weeks old.
RNA sequencing (RNA-Seq) analysis was performed on the liver cells of young mice in [MA5 addition group] and [Vehicle group] to identify genes whose expression levels changed (increased or decreased) in [MA5 addition group] as compared with [Vehicle group]. Using the results of these gene names, integrated analysis with ChIP-Atlas was performed to investigate transcription factors possibly related to these genes.

[3] = tested on: cochlear cells of the inner ear of wild-type mice; assay: RNA-Seq and ChIP-Atlas analysis of cochlear cells of wild-type mice; type: in vivo, mouse; conditions: wild-type C57BL6 mice, oral, 50 mg/kg/day, 2 weeks, Table 6
Description: Water-suspended Compound #5 was orally administered to C57BL6 mice (6 weeks old) at a dose of 50 mg/kg/day per kg of mouse weight for 2 weeks ([MA5 addition group], n=5).
In addition, water was orally administered to C57BL6 mice (6 weeks old) for […] ([Vehicle group], n=5).
RNA sequence (RNA-Seq) analysis was performed on cochlear cells of the inner ear of wild-type mice of [MA5 addition group] and [Vehicle group] described above, and genes whose expression levels changed (increased or decreased) in [MA5 addition group] as compared with [Vehicle group] were identified. Using the results of these gene names, integrated analysis with ChIP-Atlas was performed to investigate transcription factors possibly related to these genes.

[4] = tested on: genomic DNA of the liver cells; assay: Degree of methylation of genomic DNA of liver cells by the bisulfite method; type: in vivo, mouse; conditions: oral, 50 mg/kg/day, 2 months
Description: as §1, with “n=5). The degree of methylation of the genomic DNA of the liver cells of the young mice was measured by the bisulfite method.” for “n=5).”
Water-suspended Compound #5 was orally administered to C57BL6 mice (92 weeks old) at a dose of 50 mg/kg/day per kg of mouse weight for 2 months ([MA5 addition group], n=5). The degree of methylation of the genomic DNA of the liver cells of the aged mice was measured by the bisulfite method. In Table 9 and Table 10, “Count” represents how many genes were related among genes related to the pathway. For example, in a pathway involving 20 genes, when there are three genes whose expression levels have been varied by administration of Compound #5, Count is 3, and “ %” thereof is a numerical value calculated by (3/20)×100.
“P-value” represents the p-value of the between-group comparison of pathways, and “Benjamini” represents the p-value calculated using the linear step-up method of Benjamini and Hochberg (1995) (see, for example, https://david.ncifcrf.gov/helps/functional_annotation.html for calculation method).

[5] = tested on: fibrosis-related genes (aSMA and Colla1); assay: Real-time PCR of fibrosis-related genes in renal tissue of α-Klotho gene-deficient mice; type: in vivo; conditions: oral, 10 mg/kg mouse weight/day, 28 to 60 days old
Description: Water-suspended Compound #5 was orally administered to α-Klotho gene-deficient mice (28 days old) at a dose of 10 mg/kg mouse weight/day until 60 days old (Klotho homo KO mouse administration group, n=3).
In addition, water was orally administered to wild-type mice (28 days old) and α-Klotho gene-deficient mice (28 days old) until 60 days old (n=3 for each of the wild-type non-administrated group and the Klotho homo KO mouse non-administrated group).
Renal tissue was collected from each 60-day-old mouse according to a standard method, total RNA was extracted using a commercially available column extraction kit (RNeasy Micro Kit, manufactured by QIAGEN), and cDNA was synthesized from 1 μg of total RNA using ReverTra Ace(manufactured by TOYOBO CO., Ltd.). Thereafter, to quantify mRNA derived from two types of fibrosis-related genes (aSMA and Colla1) and mRNA derived from GAPDH as an internal standard, real-time PCR was performed according to a standard method using QuantStudio 5 Real-time PCR system (manufactured by Applied Biosystems) as a measuring instrument and THUNDERBIRD SYBR qPCR MasterMix (manufactured by TOYOBO CO., Ltd.) as a reaction liquid.

SMILES: O=C(CC(C(=O)O)c1c[nH]c2ccccc12)c1ccc(F)cc1F (stereo not shown) [Compound #5, 4-(2,4-difluorophenyl)-2-(1H-indole-3-yl)-4-oxo-butanoic acid]
- amount of SIRTI protein in cells (SIRTI protein): increased
- decrease in the running time on a treadmill ([1]; 10 mg/kg/day (low dose)): inhibited
- decrease in the running time on a treadmill ([1]; 50 mg/kg/day (high dose)): inhibited
- time to exhaustion ([1]; 10 mg/kg/day (low dose)): significantly improved
- time to exhaustion ([1]; 50 mg/kg/day (high dose)): significantly improved
- transcription factors related to genes whose expression increased (ChIP-Atlas) [2]: MYC, OCT4, SOX2, and NANOG related to reprogramming factors in the production of iPS cells, RXR (retinoid X receptor) and PPARA (peroxisome proliferator-activated receptor a) related to SIRT, and TRIM28
- transcription factors related to the genes whose expression increased (ChIP-Atlas) [3]: SUZ^12 and EZH2
- methylation of insulin resistance pathway ([4]; aged mice (92 weeks old)): inhibited
- methylation of insulin signaling pathway ([4]; aged mice (92 weeks old)): inhibited
- methylation of Insulin secretion pathway ([4]; young mice (12 weeks old)): inhibited
- methylation of Signaling pathways regulating pluripotency of stem cells ([4]; young mice (12 weeks old)): inhibited
- methylation of Wnt signaling pathway ([4]; young mice (12 weeks old)): inhibited
- renal fibrosis progressing with aging (aSMA and Colla1 mRNA) [5]: inhibited
